Measured values from US20070249607A1, “NK-1 AND SEROTONIN TRANSPORTER INHIBITORS” (Bristol-Myers Squibb Company, priority 2006, published 2007).
Read-outs that look alike come from different tables or passages of the source.

Key:
[1] = molecular target: T1, human serotonin transporters (Homo sapiens, UniProt P31645); assay: Serotonin transporter binding assay ([3H]-citalopram competition, HEK-hSERT cell membranes)
T1 construct: expressed in transfected cells
Outline: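 Membranes from HEK-293 cells stably expressing hSERT incubated 1 hr at 25 °C with 1 nM [3H]-citalopram and test compound in 50 mM Tris pH 7.4, 120 mM NaCl, 5 mM KCl; filtration read-out. Nonspecific binding: 10 μM fluoxetine. IC50 from displacement curve; Ki via Cheng–Prusoff.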

[2] = molecular target: T2, neurokinin-1 (NK-1) receptor (Homo sapiens, UniProt P25103); assay: NK-1 Binding assay ([125I] Substance P competition, U373 cell membranes); details: U373 membranes, [125I] Substance P displacement, read-out: NK-1 IC50
T2 construct: a human glioblastoma-astrocytoma cell line that endogenously expresses the neurokinin-1 (NK-1) receptor; endogenous in cells; host or cells: U373 human glioblastoma-astrocytoma cells (membranes)
Outline: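 Membranes were prepared from U373 human glioblastoma-astrocytoma cells, which express NK-1 endogenously, in 50 mM Tris-HCl pH 7.4 with 3 mM MnCl2, BSA and protease inhibitors. IC50 taken as the midpoint of the specific-binding displacement curve.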

[3] = Table 1, HEK-hSERT membranes, [3H]-citalopram displacement, read-out: SERT IC50
[4] = Table 2, HEK-hSERT membranes, [3H]-citalopram displacement, read-out: SERT IC50

T1 sequence (P31645 whole entry): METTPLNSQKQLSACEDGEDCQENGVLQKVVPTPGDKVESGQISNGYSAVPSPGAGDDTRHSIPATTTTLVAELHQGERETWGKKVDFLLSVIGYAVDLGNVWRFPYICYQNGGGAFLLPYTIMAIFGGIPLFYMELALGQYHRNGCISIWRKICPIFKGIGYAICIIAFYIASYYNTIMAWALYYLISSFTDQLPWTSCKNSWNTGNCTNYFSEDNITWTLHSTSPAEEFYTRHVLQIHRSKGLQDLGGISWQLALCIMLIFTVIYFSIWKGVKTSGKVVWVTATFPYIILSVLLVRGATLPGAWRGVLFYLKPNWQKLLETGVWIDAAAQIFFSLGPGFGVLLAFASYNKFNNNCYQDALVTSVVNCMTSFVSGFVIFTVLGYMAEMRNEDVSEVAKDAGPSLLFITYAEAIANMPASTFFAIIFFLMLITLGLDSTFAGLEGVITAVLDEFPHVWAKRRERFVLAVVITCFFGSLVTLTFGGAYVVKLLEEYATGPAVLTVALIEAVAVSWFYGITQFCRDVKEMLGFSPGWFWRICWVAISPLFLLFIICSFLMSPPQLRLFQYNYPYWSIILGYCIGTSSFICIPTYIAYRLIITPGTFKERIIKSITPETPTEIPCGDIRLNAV
T2 sequence (P25103 whole entry): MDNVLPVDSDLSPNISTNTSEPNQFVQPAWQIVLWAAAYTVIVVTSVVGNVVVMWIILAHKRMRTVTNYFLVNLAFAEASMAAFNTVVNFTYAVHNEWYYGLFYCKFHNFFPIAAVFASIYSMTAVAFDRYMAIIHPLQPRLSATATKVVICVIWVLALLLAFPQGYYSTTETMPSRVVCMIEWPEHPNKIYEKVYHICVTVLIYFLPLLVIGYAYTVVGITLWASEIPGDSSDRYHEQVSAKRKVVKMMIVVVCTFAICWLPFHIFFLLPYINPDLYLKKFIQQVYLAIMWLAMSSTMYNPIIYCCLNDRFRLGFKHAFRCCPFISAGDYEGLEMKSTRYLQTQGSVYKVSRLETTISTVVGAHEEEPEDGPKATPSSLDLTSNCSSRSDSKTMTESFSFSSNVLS

| SMILES | IC50 [1, 3] | IC50 ([2]; Table 1) | IC50 [1, 4] | IC50 ([2]; Table 2) | IC50 [1] |
| --- | --- | --- | --- | --- | --- |
| N#Cc1ccc(-c2cc(COCC3(c4ccccc4)CCNCC3)cc(C(F)(F)F)c2)cn1 | 0.01 to 100 nM | 0.01 to 100 nM | – | – | – |
| Cc1ccccc1-c1cc(COCC2(c3ccccc3)CCNCC2)cc(C(F)(F)F)c1 | 0.01 to 100 nM | 100 to 300 nM | – | – | – |
| FC(F)(F)c1cc(COCC2(c3ccccc3)CCNCC2)cc(-c2ccccc2-c2ccccc2)c1 | 100 to 300 nM | > 300 nM | – | – | – |
| FC(F)(F)c1ccc(-c2cc(COCC3(c4ccccc4)CCNCC3)cc(C(F)(F)F)c2)cc1 | 0.01 to 100 nM | 0.01 to 100 nM | – | – | – |
| Cc1cc(C)cc(-c2cc(COCC3(c4ccccc4)CCNCC3)cc(C(F)(F)F)c2)c1 | 0.01 to 100 nM | > 300 nM | – | – | – |
| Cc1ccc(-c2cc(COCC3(c4ccccc4)CCNCC3)cc(C(F)(F)F)c2)cc1[N+](=O)[O-] | 0.01 to 100 nM | 0.01 to 100 nM | – | – | – |
| Fc1cccc(-c2cc(COCC3(c4ccccc4)CCNCC3)cc(C(F)(F)F)c2)c1 | 0.01 to 100 nM | 0.01 to 100 nM | – | – | – |
| FC(F)(F)c1cc(COCC2(c3ccccc3)CCNCC2)cc(-c2ccc3ccccc3c2)c1 | 100 to 300 nM | 100 to 300 nM | – | – | – |
| CCOc1cccc(-c2cc(COCC3(c4ccccc4)CCNCC3)cc(C(F)(F)F)c2)c1 | 0.01 to 100 nM | 100 to 300 nM | – | – | – |
| Fc1ccccc1-c1cc(COCC2(c3ccccc3)CCNCC2)cc(C(F)(F)F)c1 | 0.01 to 100 nM | 0.01 to 100 nM | – | – | – |
| Cn1cc(-c2cc(COCC3(c4ccccc4)CCNCC3)cc(C(F)(F)F)c2)cn1 | – | – | 0.01 to 100 nM | 0.01 to 100 nM | – |
| Fc1cnc(Cl)c(-c2cc(COCC3(c4ccccc4)CCNCC3)cc(C(F)(F)F)c2)c1 | – | – | 0.01 to 100 nM | 100 to 300 nM | – |
| FC(F)(F)c1cc(COCC2(c3ccccc3)CCNCC2)cc(-c2c(C(F)(F)F)cccc2C(F)(F)F)c1 | – | – | 0.01 to 100 nM | 0.01 to 100 nM | – |
| FC(F)(F)Oc1cccc(-c2cc(COCC3(c4ccccc4)CCNCC3)cc(C(F)(F)F)c2)c1 | – | – | 0.01 to 100 nM | > 300 nM | – |
| CC(C)Cc1ccc(-c2cc(COCC3(c4ccccc4)CCNCC3)cc(C(F)(F)F)c2)cc1 | – | – | 100 to 300 nM | > 300 nM | – |
| N#Cc1ccc(-c2cc(COCC3(c4ccccc4)CCNCC3)cc(C(F)(F)F)c2)cc1F | – | – | 0.01 to 100 nM | 0.01 to 100 nM | – |
| Cc1cc(C#N)ccc1-c1cc(COCC2(c3ccccc3)CCNCC2)cc(C(F)(F)F)c1 | – | – | 0.01 to 100 nM | 0.01 to 100 nM | – |
| N#Cc1ccc(-c2cc(COCC3(c4ccccc4)CCNCC3)cc(C(F)(F)F)c2)nc1 | – | – | 0.01 to 100 nM | 0.01 to 100 nM | – |
| CN1CCC(COCc2cc(-c3ccc(Cl)cc3)cc(C(F)(F)F)c2)(c2ccccc2)CC1 | – | – | – | 0.01 to 100 nM | 0.01 to 100 nM |
| COc1ccc(-c2cc(COCC3(c4ccccc4)CCN(C)CC3)cc(C(F)(F)F)c2)cc1 | – | – | – | 0.01 to 100 nM | 0.01 to 100 nM |

| SMILES | IC50 [1, 3] | IC50 ([2]; Table 1) | IC50 [1, 4] | IC50 ([2]; Table 2) | IC50 [1] |
| --- | --- | --- | --- | --- | --- |
| CN1CCC(COCc2cc(-c3ccc(F)cc3)cc(C(F)(F)F)c2)(c2ccccc2)CC1 | – | – | – | 0.01 to 100 nM | 0.01 to 100 nM |
| CN1CCC(COCc2cc(-c3ccc(F)c(Cl)c3)cc(C(F)(F)F)c2)(c2ccccc2)CC1 | – | – | – | 0.01 to 100 nM | 0.01 to 100 nM |
| N#Cc1ccc(-c2cc(Cl)cc(COCC3(c4ccccc4)CCNCC3)c2)cc1 | – | – | 0.01 to 100 nM | 0.01 to 100 nM | – |
| N#Cc1ccc(-c2cc(C#N)cc(COCC3(c4ccccc4)CCNCC3)c2)cc1 | – | – | 0.01 to 100 nM | 0.01 to 100 nM | – |
| CN1CCC(COCc2cc(-c3cccc(F)c3)cc(C(F)(F)F)c2)(c2ccccc2)CC1 | – | – | – | 0.01 to 100 nM | 0.01 to 100 nM |
| CN1CCC(COCc2cc(-c3ccc(F)cc3F)cc(C(F)(F)F)c2)(c2ccccc2)CC1 | – | – | – | 0.01 to 100 nM | 0.01 to 100 nM |
| COc1ccc(-c2cc(COCC3(c4ccccc4)CCN(C)CC3)cc(C(F)(F)F)c2)cc1F | – | – | – | 0.01 to 100 nM | 0.01 to 100 nM |
| C[C@H](OCC1(c2ccccc2)CCNCC1)c1cc(-c2ccc(C#N)cc2)cc(C(F)(F)F)c1 | – | – | 100 to 300 nM | 0.01 to 100 nM | – |
| N#Cc1ccc(-c2cc(F)cc(COCC3(c4ccccc4)CCNCC3)c2)cc1 | – | – | 0.01 to 100 nM | 0.01 to 100 nM | – |
| Fc1ccc(-c2cc(F)cc(COCC3(c4ccccc4)CCNCC3)c2)cc1 | – | – | 0.01 to 100 nM | > 300 nM | – |
| CN1CCC(COCc2cc(F)cc(-c3ccc(C#N)cc3)c2)(c2ccccc2)CC1 | – | – | – | 0.01 to 100 nM | 0.01 to 100 nM |
| CN1CCC(COCc2cc(F)cc(-c3ccc(F)cc3)c2)(c2ccccc2)CC1 | – | – | – | 100 to 300 nM | 0.01 to 100 nM |
| Fc1ccc(-c2cc(COCC3(c4ccc(F)cc4)CCNCC3)cc(C(F)(F)F)c2)cc1 | – | – | 0.01 to 100 nM | 0.01 to 100 nM | – |
| CN1CCC(COCc2cc(-c3ccc(F)cc3)cc(C(F)(F)F)c2)(c2ccc(F)cc2)CC1 | – | – | – | 0.01 to 100 nM | 0.01 to 100 nM |
| CC(OCC1(c2ccccc2)CCNCC1)c1cc(F)cc(-c2ccc(C#N)cc2)c1 (centres unmarked) | – | – | 0.01 to 100 nM | 0.01 to 100 nM | – |
| CCN1CCC(COCc2cc(-c3ccc(C#N)cc3)cc(C(F)(F)F)c2)(c2ccccc2)CC1 | – | – | > 300 nM | 0.01 to 100 nM | – |
| N#Cc1ccc(-c2cc(COCC3(c4ccccc4)CCN(Cc4ccccc4)CC3)cc(C(F)(F)F)c2)cc1 | – | – | > 300 nM | 0.01 to 100 nM | – |
| CC(OCC1(c2ccccc2)CCNCC1)c1cc(Cl)cc(-c2ccc(C#N)cc2)c1 (centres unmarked) | – | – | 0.01 to 100 nM | 0.01 to 100 nM | – |
| Cc1cc(COCC2(c3ccccc3)CCNCC2)cc(-c2ccc(C#N)cc2)c1 | – | – | 0.01 to 100 nM | 0.01 to 100 nM | – |
| CN(C)C(=O)c1cc(COCC2(c3ccccc3)CCNCC2)cc(-c2ccc(C#N)cc2)c1 | – | – | 0.01 to 100 nM | > 300 nM | – |

| SMILES | IC50 [1, 3] | IC50 ([2]; Table 1) | IC50 [1, 4] | IC50 ([2]; Table 2) | IC50 [1] |
| --- | --- | --- | --- | --- | --- |
| N#Cc1ccc(-c2cc(COCC3(c4ccccc4)CCNCC3)cc(C(=O)N3CCCCC3)c2)cc1 | – | – | 0.01 to 100 nM | > 300 nM | – |
| N#Cc1ccc(-c2cc(COCC3(c4ccccc4)CCNCC3)cc(C(=O)N3CCOCC3)c2)cc1 | – | – | 0.01 to 100 nM | > 300 nM | – |
| Oc1cc(COCC2(c3ccccc3)CCNCC2)cc(-c2ccc(F)cc2)c1 | – | – | 0.01 to 100 nM | > 300 nM | – |
| N#Cc1cc(COCC2(c3ccccc3)CCNCC2)cc(-c2ccc(F)cc2)c1 | – | – | 0.01 to 100 nM | 0.01 to 100 nM | – |
| NC(=O)c1cc(COCC2(c3ccccc3)CCNCC2)cc(-c2ccc(F)cc2)c1 | – | – | 0.01 to 100 nM | > 300 nM | – |
| COc1cc(COCC2(c3ccccc3)CCNCC2)cc(-c2ccc(F)cc2)c1 | – | – | 0.01 to 100 nM | 0.01 to 100 nM | – |
| N#Cc1ccc(-c2cc(COCC3(c4ccccc4)CCN(C4CC4)CC3)cc(C(F)(F)F)c2)cc1 | – | – | > 300 nM | 0.01 to 100 nM | – |
| COc1c(C)cc(-c2ccc(C#N)cc2)cc1COCC1(c2ccccc2)CCNCC1 | – | – | 0.01 to 100 nM | 0.01 to 100 nM | – |
| COc1ccc(-c2cc(COCC3(c4ccccc4)CCNCC3)cc(C(F)(F)F)c2)nn1 | – | – | 0.01 to 100 nM | 0.01 to 100 nM | – |
| Cc1cc(-c2cc(COCC3(c4ccccc4)CCNCC3)cc(C(F)(F)F)c2)ccc1C#N | – | – | 0.01 to 100 nM | 0.01 to 100 nM | – |
| N#Cc1ccc(-c2cc(COCC3(c4ccccc4)CCNCC3)cc(C(F)(F)F)c2)cc1Cl | – | – | 0.01 to 100 nM | 0.01 to 100 nM | – |
| N#Cc1c(F)c(F)c(-c2cc(COCC3(c4ccccc4)CCNCC3)cc(C(F)(F)F)c2)c(F)c1F | – | – | 0.01 to 100 nM | 0.01 to 100 nM | – |
| N#Cc1c(F)cc(-c2cc(COCC3(c4ccccc4)CCNCC3)cc(C(F)(F)F)c2)cc1F | – | – | 0.01 to 100 nM | 0.01 to 100 nM | – |
| FC(F)(F)c1cc(COCC2(c3ccccc3)CCNCC2)cc(-c2cnc(Cl)nc2)c1 | – | – | 0.01 to 100 nM | 0.01 to 100 nM | – |
| CN1CCC(COCc2cc(-c3cc(F)c(C#N)c(F)c3)cc(C(F)(F)F)c2)(c2ccccc2)CC1 | – | – | – | 0.01 to 100 nM | 0.01 to 100 nM |
| CN1CCC(COCc2cc(-c3c(F)c(F)c(C#N)c(F)c3F)cc(C(F)(F)F)c2)(c2ccccc2)CC1 | – | – | – | 0.01 to 100 nM | 0.01 to 100 nM |
| CN1CCC(COCc2cc(-c3ccc(C#N)c(Cl)c3)cc(C(F)(F)F)c2)(c2ccccc2)CC1 | – | – | – | 0.01 to 100 nM | 0.01 to 100 nM |
| Cc1cc(-c2cc(COCC3(c4ccccc4)CCN(C)CC3)cc(C(F)(F)F)c2)ccc1C#N | – | – | – | 0.01 to 100 nM | 0.01 to 100 nM |
